Laboratory results as given in patent publication US20070105162A1, “Monovalent avidin and streptavidin compositions” (Massachusetts Institute of Technology, priority 2005, published 2007).

Tests used:
[1] = system: biotinylated AP-neuroligin-1 on hippocampal neurons; test: AP-neuroligin-1 clustering in hippocampal neurons labeled with avidin; type: cell-based, rat; conditions: after a two hour incubation at 37° C.
Method: HeLa cells are grown in Dulbecco's Modified Eagle Medium (DMEM) with 10% Fetal Calf Serum, 50 U/mL penicillin and 50 μg/mL streptomycin. HeLa stably expressing AP-CFP-TM or Ala-CFP-TM have been previously described (Howarth, M. et al., Proc. Natl. Acad. Sci. USA 102: 7583-7588, 2005). Dissociated primary neuronal cultures are prepared from Embryonic Day 18 or 19 (E18/19) rats and transfected with Lipofectamine 2000 at DIV6 as in Levinson et al. (Levinson, J. N. et al. J. Biol. Chem. 280: 17312-17319, 2005). […]
Images of HeLa cells are collected on a Zeiss Axiovert 200M inverted epifluorescence microscope using a 40× oil-immersion lens and a MicroMAX CCD camera (Roper Scientific; Tucson, Ariz.). CFP (420DF20 excitation, 450DRLP dichroic, 475DF40 emission) and Alexa568 (560DF20 excitation, 585DRLP dichroic, 605DF30 emission) images are collected and analyzed using OpenLab software (Improvision; Lexington, Mass.). Fluorescence images are background-corrected. […] Images are scaled to 16 bits and analyzed in Northern Eclipse (Empix Imaging; Ontario, Canada) with user-written software. […] Results are then calculated in terms of clusters per micrometer of dendrite. For assessment of pre-synaptic terminals, clusters are determined as before and average grey levels of clusters are compared between transfected dendrites and untransfected dendrites within the same field of view. […]

[2] = system: biotinylated AP-CFP-TM on HeLa cells; test: Staining of biotinylated AP-CFP-TM on HeLa with Alexa Fluor 568-conjugated avidins; type: cell-based; conditions: avidin, Alexa Fluor 568 conjugate
Method: Enzymatic biotinylation and imaging of HeLa transfectants are performed as previously described (Howarth, M. et al., Proc. Natl. Acad. Sci. USA 102: 7583-7588, 2005), except instead of 10 μM biotin and 1 mM ATP, we add 10 μM biotin-AMP (synthesized according to Coleman and Huang; Coleman, T. M. and Huang, F. Chem. Biol. 9: 1227-1236, 2002) to give equivalent biotinylation but minimizing the risk of purinoreceptor activation by ATP (Rathbone, M. P. et al., Prog. Neurobiol. 59: 663-690, 1999). […] Biotinylation of neurons is performed at day in vitro (DIV) 8 in Hanks' Balanced Salt Solution (HBSS) (Invitrogen) with 0.2 μM biotin ligase and 10 μM biotin-AMP for 5 min at 37° C. […] Neurons are washed with NeuroBasal media (Invitrogen) supplemented with B-27 (Invitrogen), 50 U/mL penicillin, 50 μg/mL streptomycin, and 0.2 mM L-glutamine and chased in the same medium for 0 or 2 hr at 37° C. Cells are then fixed in −20° C. methanol. There was no signal from wild-type avidin labeling if neurons were instead transfected with Ala-neuroligin-1 containing a point mutation in AP, confirming the specificity of labeling. […]
Images of HeLa cells are collected on a Zeiss Axiovert 200M inverted epifluorescence microscope using a 40× oil-immersion lens and a MicroMAX CCD camera (Roper Scientific; Tucson, Ariz.). CFP (420DF20 excitation, 450DRLP dichroic, 475DF40 emission) and Alexa568 (560DF20 excitation, 585DRLP dichroic, 605DF30 emission) images are collected and analyzed using OpenLab software (Improvision; Lexington, Mass.). Fluorescence images are background-corrected. […] Images are scaled to 16 bits and analyzed in Northern Eclipse (Empix Imaging; Ontario, Canada) with user-written software. […] Results are then calculated in terms of clusters per micrometer of dendrite. For assessment of pre-synaptic terminals, clusters are determined as before and average grey levels of clusters are compared between transfected dendrites and untransfected dendrites within the same field of view. […] “n” represents the number of transfected neurons for which clusters were measured. […]

[3] = literature value; read-out: Kd for biotin, reported; cited from earlier work
biotinylated cells = test: Binding of N23A, S27D streptavidin to biotinylated cells; type: cell-based

| Substance | staining pattern of labeled AP-neuroligin-1 [1] | Alexa staining of biotinylated AP-CFP-TM [2] | Kd [3] | binding to biotinylated cells (biotinylated cells) |
| --- | --- | --- | --- | --- |
| wild-type avidin: Wild-type avidin tetramer of four wild-type monomers (SEQ ID NO:17) [reference compound] | distinct aggregates | detected equally well |  |  |
| N23A, S27D: Streptavidin double mutant, still a tetramer, one of the weakest reported affinities for biotin |  |  | 71 µM | still bound to biotinylated cells |
